Data reported in patent publication US20260072027A1, “Peptides And Method” (Queen Mary University of London, priority 2022, published 2026).
Values joined by “and” are separate entries in the source; they are usually repeats but may differ in a detail not shown here. Equal entries are not always repeated. “Also recorded” adds a separate entry of the source. Where no end group is shown, it is not given here.

Key:
CD4+ T-cells (PBMCs) = test: In vitro peptide stimulation and T-cell proliferation assay, CD4+; format: cell-based, human; details: for CD4+ mean SI (stimulation index): Study cohort 2
Method in brief: (§1)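 CellTrace Violet-labelled fresh PBMCs from type 1 diabetic and healthy donors cultured 7 days in 5% autologous plasma with or without 20 μg/ml insulin peptides. Proliferation measured by flow cytometry as dye dilution within the CD4+ or CD8+ subset. Stimulation index = % proliferation stimulated/% unstimulated.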

CD8+ T-cells (PBMCs) = test: In vitro peptide stimulation and T-cell proliferation assay, CD8+; format: cell-based, human; details: for CD8+ mean SI (stimulation index): Study cohort 2
Method in brief: as §1

[1] = tested on: autoantibodies to oxPTM-INS; test: Competitive displacement ELISA, plate coated with oxidised insulin; format: binding, human; details: for inhibition of type 1 diabetes serum binding to oxPTM-INS (in words): sera pre-incubated with peptide competitor
Experimental: A competitive displacement assay was performed to map the exact epitope, namely the exact amino acid sequence binding specificities and to test the binding to native peptides versus oxidised insulin peptides. The binding to the peptide was done by direct ELISA on the native or modified peptides or by competition ELISA. Initially native synthetic peptide was oxidised by exposing to 0.05 mM CuCl2; 90 mM H2O2; 10 mM NaOCl. Native and modified peptides were fractionated by AKTA to evaluated changes in molecular profile. AKTA fractions were then tested by ELISA for reactivity (FIGS. 2 and 3). We next perform competition ELISA with the native peptides and peptides exposed to 0.05 mM CuCl2; 90 mM H2O2; 10 mM NaOCl. Serum samples were pre-incubated with either native insulin peptides or oxidised insulin peptides. Finally, based on the amino acid sequence of the identified peptides we predicted the amino acids that would be oxidised by ^●OH and HOCl and designed synthetic peptides that contain the oxidised amino acids in the synthesis. Synthetic peptides were produced by standard commercially available methods, specifically by Peptide Protein Research Ltd. Briefly, peptide synthesis was performed by automated solid phase peptide synthesis (SPPS), which was followed by purification. Each individual amino acid was added to the growing chain according to the sequence. Where specified, dihydroxyphenylalanine was added to replace Tyr or cysteate were added to replace Cys. Similarly, these peptides were tested by competition ELISA. The table below describe the different competition ELISA performed:
Serum samples from children with type 1 diabetes were pre-incubated with the synthetic peptides before they were added to the native insulin or oxidised that were previously coated on the ELISA plate. If the antibodies in the serum sample bind to the peptide they will no longer bind to the insulin or oxidised insulin on the plate-competition ELISA. 1:200 dilutions of serum samples from T1D serum samples were pre-incubated for 2 hr at room temperature with the various peptides as shown in the table above. After incubation, serum/peptide mix was added to the ELISA plate previously coated overnight with either native insulin or oxidised insulin for an additional 2 hr incubation. Plates were then washed in a plate washer three times with PBS 0.05% tween. After washing, 100 ul of anti-human IgG diluted 1:1000 in 1% milk-PBS 0.05% tween were added for additional 1 hour and 30 min incubation. After washing, ELISA was developed by adding 100 ul of TMB (10 mg/ml in DMSO) in 10 ml of 0.1 M sodium acetate plus 2 ul of H2O2. Reaction was stopped by adding 0.5 M H2SO4 (usually 20 min for insulin ELISA).
To assess the binding specificity of serum samples to identified peptides, a competitive ELISA was performed. The ELISA was carried out following the method described above, except that the serum samples were pre-incubated for 2 h with and without 10 μg/ml peptides as competitors, before adding the serum samples to the insulin coated ELISA plate.

[2] = Controls (N = 11), listed as Nt-INSP-4
[3] = Type 1 diabetes (N = 18), listed as Nt-INSP-4

Substance: LVEALYLVCGERGFFYTPKT [insulin B:11-30 native peptide]
- CD4+ T-cell response, subjects with SI > 1 (%) (CD4+ T-cells (PBMCs); Controls (N = 11)): (81.8%)
- CD4+ T-cell response, subjects with SI > 3 (%) (CD4+ T-cells (PBMCs); Controls (N = 11)): (45.5%)
- CD4+ T-cell response, subjects with SI > 5 (%) (CD4+ T-cells (PBMCs); Controls (N = 11)): (27.3%)
- CD4+ T-cell response, subjects with SI > 10 (%) (CD4+ T-cells (PBMCs); Controls (N = 11)): (9.1%)
- CD4+ T-cell response, subjects with SI > 3 (%) (CD4+ T-cells (PBMCs); [2]): 45.5%
- CD4+ T-cell response, subjects with SI > 1 (%) (CD4+ T-cells (PBMCs); Type 1 diabetes (N = 18)): (100%)
- CD4+ T-cell response, subjects with SI > 3 (%) (CD4+ T-cells (PBMCs); Type 1 diabetes (N = 18)): (66.7%)
- CD4+ T-cell response, subjects with SI > 5 (%) (CD4+ T-cells (PBMCs); Type 1 diabetes (N = 18)): (5.3%)
- CD4+ T-cell response, subjects with SI > 10 (%) (CD4+ T-cells (PBMCs); Type 1 diabetes (N = 18)): (50.0%)
- CD4+ T-cell response, subjects with SI > 3 (%) (CD4+ T-cells (PBMCs); [3]): 66.7%
- CD4+ mean SI (stimulation index) (CD4+ T-cells (PBMCs); controls): 6.89±3.4
- CD4+ mean SI (stimulation index) (CD4+ T-cells (PBMCs); type 1 diabetes): 119.8±51.69
- CD8+ T-cell response, subjects with SI > 1 (%) (CD8+ T-cells (PBMCs); Controls (N = 11)): (63.6%)
- CD8+ T-cell response, subjects with SI > 3 (%) (CD8+ T-cells (PBMCs); Controls (N = 11)): (45.5%)
- CD8+ T-cell response, subjects with SI > 5 (%) (CD8+ T-cells (PBMCs); Controls (N = 11)): (27.3%)
- CD8+ T-cell response, subjects with SI > 10 (%) (CD8+ T-cells (PBMCs); Controls (N = 11)): (18.2%)
- CD8+ T-cell response, subjects with SI > 1 (%) (CD8+ T-cells (PBMCs); [2]): 63.6%
- CD8+ T-cell response, subjects with SI > 1 (%) (CD8+ T-cells (PBMCs); Type 1 diabetes (N = 18)): (72.2%)
- CD8+ T-cell response, subjects with SI > 3 (%) (CD8+ T-cells (PBMCs); Type 1 diabetes (N = 18)): (55.6%)
- CD8+ T-cell response, subjects with SI > 5 (%) (CD8+ T-cells (PBMCs); Type 1 diabetes (N = 18)): (38.9%)
- CD8+ T-cell response, subjects with SI > 10 (%) (CD8+ T-cells (PBMCs); Type 1 diabetes (N = 18)): (33.3%)
- CD8+ T-cell response, subjects with SI > 1 (%) (CD8+ T-cells (PBMCs); [3]): 72.2%
- CD8+ mean SI (stimulation index) (CD8+ T-cells (PBMCs); controls): 5.948±3.125
- CD8+ mean SI (stimulation index) (CD8+ T-cells (PBMCs); type 1 diabetes): 405.8±325.5
- inhibition of type 1 diabetes serum binding to oxPTM-INS (in words) ([1]; listed as Nt-INSP-4): comparable inhibition as oxPTM-INSP-4; also recorded: comparable inhibition compared to oxPTM-INSP-4; also recorded: blocked type 1 diabetes serum binding to oxPTM-INS like oxPTM-INSP-4

Substance: oxPTM-INSP-3: oxidised forms of insulin peptide 3 (A:12-21), in house oxidised or in silico derivatives (SLYQLENYCN; not fully specified (N-terminus); also: oxidised forms, in house oxidised or in silico derivatives, modified residues not defined)
- CD4+ T-cell response, subjects with SI > 3 (%) (CD4+ T-cells (PBMCs); Controls (N = 11)): 9.1%
- CD4+ T-cell response, subjects with SI > 3 (%) (CD4+ T-cells (PBMCs); Type 1 diabetes (N = 18)): 22.2%
- inhibition of type 1 diabetes serum binding to oxPTM-INS (in words) [1]: strongly inhibited binding to oxPTM-INS; also recorded: able to inhibit the binding
- reduced binding to oxidised whole insulin ([1]; type 1 diabetes sera pre-incubated with peptide, listed as Oxidised peptide 3): 35-80% and 40-80%
